US20070191372A1, “Dna-targeted benzotriazine 1,4-dioxides and their use in cancer therapy” (Auckland Uniservices Limited, priority 2002, published 2007)
Where a name gives a salt, the structure may show the parent alone.

How the values were obtained:
murine SCCVII = test: Clonogenic assay under aerobic and hypoxic conditions, SCCVII; assay type: cell-based; details: SCVIII cells; for IC90: Mus musculus, 1 h, hypoxic, 60 min drug exposure, SN (hypoxic), read-out: C10 hypoxic; for HCR: ratio of C10 under aerobic and hypoxic conditions; for RHT: ratio of hypoxic TPZ C10 to hypoxic compound C10
Experimental: Evaluation of the Cytotoxicity of Compounds by Clonogenic Assay Under Aerobic and Hypoxic Conditions.
Compounds representative of the invention were evaluated under both aerobic and hypoxic conditions in clonogenic assays, using three cell lines: human colon carcinoma HT-29, murine SCCVII, and human lung adenocarcinoma LXFL. Clonogenic survival was determined using aerobic and hypoxic SCCVII cell suspensions. Drug exposures were performed using continuously stirred and gassed single cell suspensions (10^6 cells/mL) at 37° C., equilibrated with 5% CO2 in air or N2 for 60 min before drug addition. After a 60 min drug exposure cells were washed by centrifugation and plated to determine colony formation Cytotoxicity was measured as the concentration required to reduce plating efficiency to 10% of controls (C10). The hypoxic cytotoxicity ratio (HCR) was determined as the ratio of the C10 values under aerobic and hypoxic conditions. The relative hypoxic toxicity (RHT) was determined as the ratio of hypoxic TPZ C10 to hypoxic BTO C10. Abbreviations used in Table 2 are:
C10=The concentration of drug (in micromolar) to reduce viable cell numbers to 10% of those of control cell cultures grown under the same conditions but not exposed to drug
(§1) RHT=Relative hypoxic toxicity is defined as the ratio of concentrations of Tirapazamine/test compound to give equal cell killing under hypoxic conditions.
HCR=Hypoxic cytotoxicity ratio is defined as the ratio of drug concentrations under aerobic and hypoxic condition to produce equal cell survival (10%) determined by clonogenic assay

[1] = tested on: human colon carcinoma HT-29; test: Proliferation assay (IC50) under aerobic and hypoxic conditions, HT-29; assay type: cell-based; details: for RHT: HT-29, ratio Tirapazamine/test compound under hypoxic conditions; for HCR: HT-29, ratio of IC50 under aerobic and hypoxic conditions; for IC50: Homo sapiens, HT-29, hypoxic (anoxia <0.001% O2), 4 h exposure
Experimental: (§2) Evaluation of the Cytotoxicity of Compounds by Proliferation Assay (IC50) Under Aerobic and Hypoxic Conditions.
(§3) Compounds representative of the invention were evaluated under both aerobic and hypoxic conditions in a proliferation assay (IC50), using two cell lines: human colon carcinoma HT-29, and human cervical carcinoma SiHa.
(§4) Drug exposures were performed in 96-well plates (Nunc) using either a 37° C. humidified incubator (20% O2, 5% CO2) or in the incubator compartment (37° C.) of an anaerobic chamber (Shell Lab) where palladium catalyst scrubbed gas (90% N2, 5% H2, 5% CO2) ensures severe anoxia (<0.001% O2). For each experiment, compounds were simultaneously tested under both oxic and hypoxic conditions against the HT-29 cell line and included TPZ as an independent internal control at the front and back of the assay (n=2). Final data was pooled from a series of seven independent experiments and is calculated using inter-experimental means. In all cases, 8-methyl-5-nitroquinoline was used as a second internal control to confirm that strict hypoxia was present during the experiment. (Siim et al. Br. J. Cancer 1994, 70, 596-603). Cell cultures were grown in αMEM (Gibco) containing 5% heat inactivated FCS and maintained in exponential growth phase. For each individual experiment an appropriate number of cells were seeded (HT-29=1000) into wells in αMEM÷10% FCS+10 mM added glucose+100 μM 2′-deoxycytidine (2′dCyd), and allowed to attach for 3 h. High glucose (final concentration 17 mM) and the presence of 2′-dCyd minimize hypoxia-induced cell cycle arrest. Replicates were then exposed to BTOs, using 2-fold serial dilutions in triplicate, for a further 4 h. Subsequently cells were washed free of compound using complete media (without glucose/2′-dCyd) and allowed to grow for 5 (oxic) or 6 (anoxic) days. Plates were stained as described previously (Wilson et al., J. Med. Chem. 1989, 32, 31-38) and IC50 values determined.
(§5) IC50=The concentration of drug (in micromolar) to reduce viable cell numbers to 50% of those of control cell cultures grown under the same conditions but not exposed to drug
as §1
(§6) HCR=Hypoxic cytotoxicity ratio is defined as the ratio of drug concentrations under aerobic and hypoxic condition to produce equal cell survival (50%) determined by proliferation assay

[2] = tested on: human cervical carcinoma SiHa; test: Proliferation assay (IC50) under aerobic and hypoxic conditions, SiHa; assay type: cell-based; details: for IC50: Homo sapiens, hypoxic, 4 h exposure; for RHT: ratio Tirapazamine/test compound under hypoxic conditions; for HCR: ratio of IC50 under aerobic and hypoxic conditions
Experimental: as §2, §3, §4, §5, §1, §6

Row | Compound | melting point | RHT [1] | HCR [1] | IC50 [1] | other results
1 | Cc1cccc2nc3cccc(C(=O)NCCCNCCCNc4n[n+]([O-])c5ccccc5[n+]4[O-])c3nc12.Cl | 183 to 186 °C |  |  |  | 
2 | O=C(NCCCNc1n[n+]([O-])c2ccccc2[n+]1[O-])c1cccc2cc3ccccc3nc12 (as salt: hydrochloride) [Compound 17, N-{3-[(1,4-Dioxido-1,2,4-benzotriazin-3-yl)amino]propyl}-4-acridinecarboxamide] | 192 °C |  |  |  | 
3 | CN(CCCNC(=O)c1cccc2nc3ccccc3nc12)CCCc1n[n+]([O-])c2ccccc2[n+]1[O-] (as salt: hydrochloride) [Compound 63, N-{3-[[3-(1,4-Dioxido-1,2,4-benzotriazin-3-yl)propyl](methyl)amino]propyl}-1-phenazinecarboxamide] | 173 °C |  |  |  | 
4 | O=C(NCCCCCCNc1n[n+]([O-])c2ccccc2[n+]1[O-])c1cccc2cc3ccccc3nc12 [Compound 12, N-{6-[(1,4-Dioxido-1,2,4-benzotriazin-3-yl)amino]hexyl}-4-acridinecarboxamide] | 196 to 198 °C |  |  |  | 
5 | O=C(NCCCCCCNc1n[n+]([O-])c2ccccc2[n+]1[O-])c1ccnc2ccccc12 [Compound 13, N-{6-[(1,4-Dioxido-1,2,4-benzotriazin-3-yl)amino]hexyl}-4-quinolinecarboxamide] | 196 to 198 °C |  |  |  | 
6 | O=C(NCCCNc1n[n+]([O-])c2ccccc2[n+]1[O-])c1cccc2cc3ccccc3nc12 [Compound 17, N-{3-[(1,4-Dioxido-1,2,4-benzotriazin-3-yl)amino]propyl}-4-acridinecarboxamide] |  |  |  |  | IC90 (murine SCCVII): 4800 nM; HCR (murine SCCVII): >6.3; RHT (murine SCCVII): 1.94
7 | O=C(NCCOCCNc1n[n+]([O-])c2ccccc2[n+]1[O-])c1cccc2cccnc12 [Compound 24, N-(2-{2-[(1,4-Dioxido-1,2,4-benzotriazin-3-yl)amino]ethoxy}ethyl)-8-quinolinecarboxamide] | 168 to 170 °C |  |  |  | 
8 | O=C(NCCOCCNc1n[n+]([O-])c2ccccc2[n+]1[O-])c1cccc2[nH]c(-c3ccccc3)nc12 [Compound 25, N-(2-{2-[(1,4-Dioxido-1,2,4-benzotriazin-3-yl)amino]ethoxy}ethyl)-2-phenyl-1H-benzimidazole-4-carboxamide] | 203 to 207 °C |  |  |  | 
9 | O=C(NCCOCCNc1n[n+]([O-])c2ccccc2[n+]1[O-])c1cccc2ccc(-c3ccncc3)nc12 [Compound 26, N-(2-{2-[(1,4-Dioxido-1,2,4-benzotriazin-3-yl)amino]ethoxy}ethyl)-2-(4-pyridinyl)-8-quinolinecarboxamide] | 128 to 130 °C |  |  |  | 
10 | O=C(NCCNCCNc1n[n+]([O-])c2ccccc2[n+]1[O-])c1cccc2cc3ccccc3nc12 [Compound 37, N-[2-({2-[(1,4-Dioxido-1,2,4-benzotriazin-3-yl)amino]ethyl}amino)ethyl]-4-acridinecarboxamide] |  | 74 | 160 | 79 nM | 
11 | CN(CCCNC(=O)c1cccc2cccnc12)CCCNc1n[n+]([O-])c2ccccc2[n+]1[O-] [Compound 42, N-{3-[{3-[(1,4-Dioxido-1,2,4-benzotriazin-3-yl)amino]propyl}(methyl)amino]propyl}-8-quinolinecarboxamide] |  | 11.2 | 86.2 | 517 nM | 
12 | CN(CCCNC(=O)c1cccc2ccc(-c3ccncc3)nc12)CCCNc1n[n+]([O-])c2ccccc2[n+]1[O-] [Compound 43, N-{3-[{3-[(1,4-dioxido-1,2,4-benzotriazin-3-yl)amino]propyl}(methyl)amino]-propyl}-2-(4-pyridyl)-8-quinolinecarboxamide] |  | 51.4 | 119 | 113 nM | IC90 (murine SCCVII): 1400 nM; HCR (murine SCCVII): 10; RHT (murine SCCVII): 5.7
13 | Cc1cccc2cc3cccc(C(=O)NCCCN(C)CCCNc4n[n+]([O-])c5ccccc5[n+]4[O-])c3nc12 [Compound 44, N-{3-[{3-[(1,4-dioxido-1,2,4-benzotriazin-3-yl)amino]propyl}(methyl)amino]-propyl}-5-methyl-4-acridinecarboxamide] |  | 25.7 | 72.7 | 226 nM | IC90 (murine SCCVII): 160 nM; HCR (murine SCCVII): >187; RHT (murine SCCVII): 56.3
14 | COCCOc1ccc2c(c1)[n+]([O-])nc(NCCCN(C)CCCNC(=O)c1cccc3cc4ccccc4nc13)[n+]2[O-] [Compound 55, N-{3-[(3-{[7-(2-Methoxyethoxy)-1,4-dioxido-1,2,4-benzotriazin-3-yl]amino}propyl)(methyl)amino]propyl}-4-acridinecarboxamide] |  | 47 | 97 | 124 nM | IC50 [2]: 50 nM; RHT [2]: 72; HCR [2]: 124; IC90 (murine SCCVII): 1100 nM; HCR (murine SCCVII): 63.6; RHT (murine SCCVII): 10
15 | CN(CCCNC(=O)c1cccc2cc3ccccc3nc12)CCCc1n[n+]([O-])c2ccccc2[n+]1[O-] [Compound 62, N-{3-[[3-(1,4-dioxido-1,2,4-benzotriazin-3-yl)propyl](methyl)amino]propyl}-4-acridinecarboxamide] |  | 274 | 157 | 21 nM | 
16 | CN(CCCNC(=O)c1cccc2nc3ccccc3nc12)CCCc1n[n+]([O-])c2ccccc2[n+]1[O-] [Compound 63, N-{3-[[3-(1,4-Dioxido-1,2,4-benzotriazin-3-yl)propyl](methyl)amino]propyl}-1-phenazinecarboxamide] |  | 167 | 129 | 34 nM | 
17 | O=C(CCNc1ccnc2cc(Cl)ccc12)NCCCNc1n[n+]([O-])c2ccccc2[n+]1[O-] [Compound 65, 3-[(7-Chloro-4-quinolinyl)amino]-N-{3-[(1,4-dioxido-1,2,4-benzotriazin-3-yl)amino]propyl}propanamide] | 202 °C (dec.) |  |  |  | 
18 | Cc1ccc2c(c1)[n+]([O-])nc(NCCCN(C)CCCNC(=O)c1cccc3nc4ccccc4nc13)[n+]2[O-] [Compound 76, N-[3-(Methyl{3-[(7-methyl-1,4-dioxido-1,2,4-benzotriazin-3-yl)amino]propyl}amino)propyl]-1-phenazinecarboxamide] | 118 to 122 °C |  |  |  | 
19 | Cc1ccc2c(c1)[n+]([O-])nc(NCCCNCCCNC(=O)c1cccc3nc4cccc(C)c4nc13)[n+]2[O-] [Compound 77, 9-Methyl-N-[3-({3-[(7-methyl-1,4-dioxido-1,2,4-benzotriazin-3-yl)amino]propyl}amino)propyl]-1-phenazinecarboxamide] | 119 to 122 °C |  |  |  | 
20 | Cc1ccc2c(c1)[n+]([O-])c(NCCCN(C)CCCNC(=O)c1cccc3cc4ccccc4nc13)n[n+]2[O-] [Compound 85, N-[3-(Methyl{3-[(6-methyl-1,4-dioxido-1,2,4-benzotriazin-3-yl)amino]propyl}amino)propyl]-4-acridinecarboxamide] |  | 26 | 134 | 222 nM | 
21 | CN(CCNC(=O)c1cccc2cc3ccccc3nc12)CCNc1n[n+]([O-])c2ccccc2[n+]1[O-] [Compound 95, N-{2-[{2-[(1,4-Dioxido-1,2,4-benzotriazin-3-yl)amino]ethyl}(methyl)amino]ethyl}-4-acridinecarboxamide] |  | 71 | 74 | 180 nM | IC50 [2]: 76 nM; RHT [2]: 48; HCR [2]: 89; IC90 (murine SCCVII): 1000 nM; HCR (murine SCCVII): 400; RHT (murine SCCVII): 11
